Experimental data published in patent publication US20260102407A1, “TREATMENT METHODS” (priority 2020, published 2026).

Assays:
[1] = system: VEGF-A165; assay: Immunohistochemical staining of rat retina, VEGF-A165; assay type: in vivo
Description: (§1) Rat choroidal laser injury model. Male Brown Norway pigmented rats (8-14 week-old) were anesthetized by an intramuscular injection of Rompun® (xylazine)/Imalgene® (ketamine). Pupils were dilated by instillation of one drop of 0.5% tropicamide before laser burn. Six burns were created in both eyes on Day 0 by applying 170 mW of 532 nm laser light (Viridis laser, Quantel, France) on 75 μm spots around the optic nerve, between the main retinal vessel branches, for 0.1s, through the slit lamp and contact lens. Production of a bubble at the time of laser application confirmed the rupture of Bruch's membrane. […] After anaesthesia, 10% sodium fluorescein (250 μl/100 g body weight) was injected subcutaneously, and ocular fluorescence was recorded 10 min after dye injection. Fluorescein leakage was evaluated on Days 14 and 21 in the angiograms by two examiners masked to the study groups and graded for fluorescein intensity as follows: score 0: no leakage; 1: slightly stained; 2: moderately stained; 3: strongly stained.
(§2) Immunohistochemical staining of rat retina. […] IOD of positive staining (red chromogen) was assessed for CD31, VEGF-A165, pERK, FosB and VCAM-1 using Image-Pro Plus software (Cybernetics, Bethesda, MD). IOD in IPL and INL was quantified for CD31; OPL to OS for VEGF-A165; INL to ONL for pERK; GCL to OS for FosB; OLM for VCAM-1, using Image-Pro Plus. […]

[2] = system: VCAM-1; assay: Immunohistochemical staining of rat retina, VCAM-1; assay type: in vivo; settings: lasered rat retinas
Description: as §1, §2

[3] = system: VCAM-1; assay: Collagen antibody-induced arthritis, hind limb immunohistochemistry for VCAM-1; assay type: in vivo, mouse; settings: CAIA mice; Day 14 hind limbs
Procedure: (§3) Collagen antibody-induced arthritis. Arthritis was induced in female Balb/c mice (6-8 week-old) as previously described with a commercially obtained cocktail of 5 monoclonal antibodies to type II collagen at 2 mg/mouse (Chondrex, Inc. Redmond, WA) followed by LPS (50 μg/mouse) with or without BT2 (3 or 30 mg/kg mouse) in DMSO vehicle was administered i.p. on Day 3. Hind footpad thickness was measured on Day 9 using digital calipers. Mice were sacrificed on Day 14 and microCT scanning of hind limbs was performed.
(§4) Immmunohistochemical staining of hind limbs for VCAM-1 and ICAM-1 and analysis. Formalin-fixed, paraffin embedded of hind limbs were sectioned (5 μm). Dako EnVision Rabbit Kit (cat. K4011, Dako) was used for immmunohistochemical staining for VCAM-1 and ICAM-1. […] Integrated optical density (IOD) of positive staining in ankle joint (tibia and talus) articular cartilage was assessed for VCAM-1 and ICAM-1 using Image-Pro Plus software (Cybernetics, Bethesda, MD, USA). Area (μm^2) of ankle joint articular cartilage was measured using Image-Pro Plus software. Total cell number and positive staining cell number in ankle joint articular cartilage were counted manually using Image-Pro Plus software. […]

[4] = system: ICAM-1; assay: Collagen antibody-induced arthritis, hind limb immunohistochemistry for ICAM-1; assay type: in vivo, mouse; settings: CAIA mice; Day 14 hind limbs
Procedure: as §3, §4

With CCOC(=O)Nc1ccc2c(c1)C(=O)N(CC)c1ccccc1O2 [BT2, (10-ethyl-11-oxo-10,11-dihydro-dibenzo[b,f][1,4]oxazepin-2-yl)-carbamic acid ethyl ester] the “inducible expression of VEGF-A165 in retina” value ([1]; lasered rat eyes 21 days after injury) was “inhibited the inducible expression of VEGF-A165”, the “VEGF-A165 staining gradient relative to the wound” value ([1]; lasered rat eyes, 100 μm boxed increments) was “inhibited by BT2” and the “inducible VCAM-1 expression in the OLM” value [2] was “reduced inducible VCAM-1 expression”. For the same compound, the “VCAM-1 expression in bone” value [3] was “inhibit VCAM-1 and ICAM-1 expression” and the “ICAM-1 expression in bone” value [4] was “inhibit VCAM-1 and ICAM-1 expression”.
